According to US10507228B2, “Methods and compositions related to KRAS inhibitors” (priority 2015, dated 2019):
Positions of bridges follow the written chain, without caps; N, C: chain ends. Non-standard residues stand in square brackets, D forms with d. Residues, ends and D or L forms follow the SMILES beside them. ξ: configuration not given here. ξK = NCCCCC(N)C(=O)O; ξA = CC(N)C(=O)O

Target: T1, mt G12D KRas binding to GST-RBD (Raf Ras binding domain) (Homo sapiens, UniProt P01116, G12D)
T1 construct: expressed in transfected cells; host or cells: NIH-3T3 cells (lysate)
Assay: GST-RBD pulldown assay
Conditions: lysates of NIH-3T3 cells that ectopically express G12D KRas; compared to DMSO control; FIG. 1B
Procedure: Several stapled peptides such as FY-A-100-1 and 2 have been made (see FIG. 1A) that were designed based on the helical domain (78-92, LHDCLMKALKVRGLQ) (SEQ ID NO. 1) of Raf RBD (Ras binding domain). The synthesis was conducted on solid phase. In GST-RBD pulldown assays, FY-A-100-1 was potent at inhibiting the ability of GST-RBD to bind mt G12D KRas from lysates of NIH-3T3 cells that ectopically express G12D KRas (FIG. 1B). […] Furthermore, FY-A-90-1A, which is identical to FY-A-100-1 except for having a “CH2” shorter side chain of residue 82 that forms the staple, was not active.

SMILES	inhibiting the ability of GST-RBD to bind mt G12D KRas
CSCC[C@H](NC(=O)[C@H](CC(=O)O)NC(=O)[C@H](CS)NC(=O)[C@H](CC(=O)O)NC(=O)[C@H](Cc1cnc[nH]1)NC(=O)[C@@H](N)CC(C)C)C(=O)N[C@@H](CCCCN)C(=O)NC(CCCCN)C(=O)N[C@@H](CCCCN)C(=O)NC(CCCCN)C(=O)N[C@H](C(=O)N[C@@H](CCCNC(=N)N)C(=O)NCC(=O)N[C@@H](CC(C)C)C(=O)N[C@@H](CCC(N)=O)C(N)=O)C(C)C (stereo partly drawn) [FY-A-90-1B] (H-LHDCDMK[ξK]K[ξK]VRGLQ-NH2)	little activity
CSCC[C@@H]1NC(=O)[C@@H](NC(=O)[C@H](CS)NC(=O)[C@H](CC(=O)O)NC(=O)[C@H](Cc2cnc[nH]2)NC(=O)[C@@H](N)CC(C)C)CCC(=O)NCCCC[C@@H](C(=O)N[C@@H](CCCCN)C(=O)N[C@H](C(=O)N[C@@H](CCCNC(=N)N)C(=O)NCC(=O)N[C@@H](CC(C)C)C(=O)N[C@@H](CCC(N)=O)C(N)=O)C(C)C)NC(=O)C(C)NC(=O)[C@H](CCCCN)NC1=O (stereo partly drawn) [FY-A-100-2] (H-LHDCEMK[ξA]KKVRGLQ-NH2; lactam 5-9)	less potent
CSCC[C@@H]1NC(=O)[C@@H](NC(=O)[C@H](CS)NC(=O)[C@H](CC(=O)O)NC(=O)[C@H](Cc2cnc[nH]2)NC(=O)[C@@H](N)CC(C)C)CC(=O)NCCCC[C@@H](C(=O)NC(CCCCN)C(=O)N[C@H](C(=O)N[C@@H](CCCNC(=N)N)C(=O)NCC(=O)N[C@@H](CC(C)C)C(=O)N[C@@H](CCC(N)=O)C(N)=O)C(C)C)NC(=O)C(C)NC(=O)[C@H](CCCCN)NC1=O (stereo partly drawn) [FY-A-90-2A] (H-LHDCDMK[ξA]K[ξK]VRGLQ-NH2; lactam 5-9)	little activity
CSCC[C@H](NC(=O)[C@H](CC(=O)O)NC(=O)[C@H](CS)NC(=O)[C@H](CC(=O)O)NC(=O)[C@H](Cc1cnc[nH]1)NC(=O)[C@@H](N)CC(C)C)C(=O)N[C@@H](CCCCN)C(=O)NC(C)C(=O)N[C@@H](CCCCN)C(=O)NC(CCCCN)C(=O)N[C@H](C(=O)N[C@@H](CCCNC(=N)N)C(=O)NCC(=O)N[C@@H](CC(C)C)C(=O)N[C@@H](CCC(N)=O)C(N)=O)C(C)C (stereo partly drawn) [FY-A-90-2B] (H-LHDCDMK[ξA]K[ξK]VRGLQ-NH2)	little activity
CSCC[C@@H]1NC(=O)[C@@H](NC(=O)[C@H](CS)NC(=O)[C@H](CC(=O)O)NC(=O)[C@H](Cc2cnc[nH]2)NC(=O)[C@@H](N)CC(C)C)CC(=O)NCCCC[C@@H](C(=O)NC(CCCCN)C(=O)N[C@H](C(=O)N[C@@H](CCCNC(=N)N)C(=O)NCC(=O)N[C@@H](CC(C)C)C(=O)N[C@@H](CCC(N)=O)C(N)=O)C(C)C)NC(=O)C(CCCCN)NC(=O)[C@H](CCCCN)NC1=O (stereo partly drawn) [FY-A-90-1A] (H-LHDCDMK[ξK]K[ξK]VRGLQ-NH2; lactam 5-9)	not active
CSCC[C@@H]1NC(=O)[C@@H](NC(=O)[C@H](CS)NC(=O)[C@H](CC(=O)O)NC(=O)[C@H](Cc2cnc[nH]2)NC(=O)[C@@H](N)CC(C)C)CCC(=O)NCCCC[C@@H](C(=O)N[C@@H](CCCCN)C(=O)N[C@H](C(=O)N[C@@H](CCCNC(=N)N)C(=O)NCC(=O)N[C@@H](CC(C)C)C(=O)N[C@@H](CCC(N)=O)C(N)=O)C(C)C)NC(=O)[C@H](CCCCN)NC(=O)[C@H](CCCCN)NC1=O [FY-A-100-1] (H-LHDCEMKKKKVRGLQ-NH2; lactam 5-9)	potent
